Test results: patent US12269859B2, “Synthetic immune receptors and methods of use thereof” (Angeles Therapeutics, Inc., priority 2016, dated 2025)
“Also recorded” adds a separate entry of the source.

Tested on: RAJI cells
Assay: GLuc cytotoxicity assay, RAJI-GLuc cells
Type: cell-based, human
Protocol: (D) Assay for Cytotoxic Activity in vitro and in vivo: The uninfected T cells or those expressing a control vector or SIR are cocultured with the target cell lines expressing a non-secretory form of a luciferase (such as GLuc, NLuc, Turboluc 16 etc.) for 4-96 hours and induction of cell lysis examined by measuring the luciferase activity as described in PCT/US17/52344. Alternate methods for measurement of cytotoxic activity (e.g., ^51Cr release assay or LDH release assay) can be used as well. The activity of T cells expressing a SIR can be also assayed in vivo using appropriate xenograft models in immunodeficient mice.
Cell death assay. To measure cell death, a novel assay based on ectopic cytosolic expression of Gluc or NLuc was utilized as described in PCT/US17/52344 “A Non-Radioactive Cytotoxicity Assay”. The method involves expression of a reporter in a target cells in a manner so that it is preferentially retained within the healthy cells but is either released from dead and dying cells or whose activity can be preferentially measured in dead and dying cells. The preferred reporter for this assay are 1) non-secreted forms of luciferases from the copepods, such as Gaussia princeps, Pleuromamma abdominalis, Metridia pacifica, Metridia curticauda, Metridia asymmetrica, Metridia okhotensis, Metridia longa, Lucicutia ovaliformis, Heterorhabdus tanneri, and Pleuromamma scutullata 2) engineered luciferase reporters from deep sea shrimp, such as NanoLuc. The sequence of several such reporter vectors is provided in SEQ ID NO: 881 to SEQ ID NO: 887. The above vectors were used to generate retrovirus and lentiviruses which in turn were used to generate polyclonal population of several target cell lines stably expressing GLuc, NLuc, TurboLuc or MLuc7 following selection with appropriate antibiotics. Unless indicated otherwise, the target cells stably expressing the different luciferases (GLuc, Nluc, MLuc7 or TurboLuc16) were plated in triplicate in a 384 well plate in the media used for growing the target cells. Target cells which grow in suspension were generally plated at a concentration of 2-3×10^4 per well, while target cells which grow as adherent monolayers were plated at a concentration of 1-2×10^4 per well. Unless indicated otherwise, the target cells were cocultured with the genetically modified T cells (i.e. those expressing SIR or CAR) at an Effector:Target (E:T) ratio varying from 1:1 to 10:1 for 4 hours to 96 hours. In the case target cells grow as adherent cells (e.g., HeLa cells), they were allowed to attach to the bottom of the wells overnight before the T cells were added. T cells mediated induction of lysis of target cells was assayed by increase of luciferase activity as measured by BioTek synergy plate reader by directly injecting 0.5×CTZ assay buffer containing native coeloentrazine (Nanaolight).
CTZ assay. A 100× stock solution of native coelenterazine (CTZ; Nanolight, cat #303) was made by dissolving 1 mg of lyophilized CT powder in 1.1 ml of 100% Methanol supplemented with 30 μl of 6N HCl to avoid oxidation of CTZ with time. To make CTZ assay buffer, the 100× stock solution of CTZ was diluted to 0.5× concentration in PBS. Unless indicated otherwise, a total volume of 15 μl of the CTZ assay buffer (as prepared above) was added to each well of a 384-well white plate (Greiner, 384 well white plate cat #781075) containing cells expressing the non-secretory form of the luciferase in approximately 50-60 μl volume of medium and plates were read for luminescence in endpoint mode using BioTek synergyH4 plate reader. For 96 well plates, cells were plated in 200 μl of media and approximately 50 μl of 0.5×CTZ assay buffer was added. Unless indicated otherwise, the 0.5×CTZ assay buffer was used for assaying the activity of GLuc, TurboLuc16, and MLuc7. The CTZ assay buffer (diluted to 0.125× concentration) was also used for measurement of NLuc activity in some experiments (see below).

Substance | lysis of target cells by increase of GLuc activity (in words) (E:T 1:1, 96 hours) | lysis of target cells by increase of GLuc activity (in words) (E:T 10:1, 4 hours) | mean Gluc values (E:T 10:1, 4 hours)
CD8SP-CD19Bu12-vL-V5-[TCRb-S57C-opt1]-F-P2A-SP-CD19Bu12-vH-Myc-[TCRa-T48C-opt1]-F-F2A-PAC [SEQ ID NO:1021] | increase in GLuc activity | increase in GLuc activity | 2547
CD8SP-FMC63-vL-V5-[TCRb-S57C-opt1]-F-P2A-SP-FMC63-vH-Myc-[TCRa-T48C-opt1]-F-F2A-PAC [SEQ ID NO:900] | increase in GLuc activity | increase in GLuc activity; also recorded: induced effective target cell lysis; also recorded: Modest cytotoxicity | 3042
